Three cell lines from the supplement of paper PMC10307832 can be followed below.

Common to all, as to experiment: relative viability (nuclei count vs DMSO), 5 days (fraction); higher = more cells survive
Compound in the assay “AZD5582 + OSI-027”: C[C@@H](C(=O)N[C@@H](C1CCCCC1)C(=O)N2CCC[C@H]2C(=O)N[C@@H]3[C@@H](CC4=CC=CC=C34)OCC#CC#CCO[C@@H]5CC6=CC=CC=C6[C@@H]5NC(=O)[C@@H]7CCCN7C(=O)[C@H](C8CCCCC8)NC(=O)[C@H](C)NC)NC [AZD5582] + COc1cccc2cc(-c3nc([C@H]4CC[C@H](C(=O)O)CC4)n4ncnc(N)c34)[nH]c12 [OSI-027] (partner 0.5 µM)
Put shortly:
(§1)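 Relative viability equals treated-well nuclei counts divided by vehicle-well nuclei counts. Counts came from 4× images of lung cancer cell lines grown in 1536-well plates for 5 days after pin-tool dosing on the day after seeding. Dosing used one drug alone or a fixed anchor-drug dose plus five library-drug doses (not always all listed) in √10 steps, and values are medians of duplicate plates.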

Compound in the assay “AZD5582 + AZD7762”: C[C@@H](C(=O)N[C@@H](C1CCCCC1)C(=O)N2CCC[C@H]2C(=O)N[C@@H]3[C@@H](CC4=CC=CC=C34)OCC#CC#CCO[C@@H]5CC6=CC=CC=C6[C@@H]5NC(=O)[C@@H]7CCCN7C(=O)[C@H](C8CCCCC8)NC(=O)[C@H](C)NC)NC [AZD5582] + NC(=O)Nc1cc(-c2cccc(F)c2)sc1C(=O)N[C@H]1CCCNC1 [AZD7762] (partner 0.2 µM)
The procedure, abridged:
as §1

Compound in the assay “AZD5582 + Tozasertib”: C[C@@H](C(=O)N[C@@H](C1CCCCC1)C(=O)N2CCC[C@H]2C(=O)N[C@@H]3[C@@H](CC4=CC=CC=C34)OCC#CC#CCO[C@@H]5CC6=CC=CC=C6[C@@H]5NC(=O)[C@@H]7CCCN7C(=O)[C@H](C8CCCCC8)NC(=O)[C@H](C)NC)NC [AZD5582] + Cc1cc(Nc2cc(N3CCN(C)CC3)nc(Sc3ccc(NC(=O)C4CC4)cc3)n2)n[nH]1 [Tozasertib] (partner 0.1 µM)
The procedure, abridged: as §1

Compound in the assay “Temozolomide + Alpelisib”: Cn1nnc2c(C(N)=O)ncn2c1=O [Temozolomide] + Cc1nc(NC(=O)N2CCC[C@H]2C(N)=O)sc1-c1ccnc(C(C)(C)C(F)(F)F)c1 [Alpelisib] (partner 2 µM)
Put shortly:
as §1

BEN: the relative viability in the assay with AZD5582 + OSI-027 (first compound 0.001581 µM) came to 0.295; with AZD5582 + OSI-027 (first compound 0.005 µM), 0.301; with AZD5582 + OSI-027 (first compound 0.01581 µM), 0.349; with AZD5582 + OSI-027 (first compound 0.05 µM) it was 0.282; in the assay with AZD5582 + AZD7762 (first compound 0.001581 µM) it was 0.74; in the assay with AZD5582 + AZD7762 (first compound 0.005 µM), 0.701. Further, the relative viability was 0.866 with AZD5582 + AZD7762 (first compound 0.01581 µM); 0.619 in the assay with AZD5582 + AZD7762 (first compound 0.05 µM); 0.479 with AZD5582 + Tozasertib (first compound 0.001581 µM); 0.53 with AZD5582 + Tozasertib (first compound 0.005 µM); 0.577 with AZD5582 + Tozasertib (first compound 0.01581 µM); 0.51 with AZD5582 + Tozasertib (first compound 0.05 µM). For the same cell line, the relative viability with Temozolomide + Alpelisib (first compound 0.2 µM) turned out to be 0.914; with Temozolomide + Alpelisib (first compound 0.6325 µM), 1.29; with Temozolomide + Alpelisib (first compound 2 µM), 0.939; with Temozolomide + Alpelisib (first compound 6.325 µM), 0.977; in the assay with Temozolomide + Alpelisib (first compound 20 µM), 0.757.
Take LC-2-ad: the relative viability with AZD5582 + OSI-027 (first compound 0.001581 µM) is 0.823; with AZD5582 + OSI-027 (first compound 0.005 µM) it was 1.05; with AZD5582 + OSI-027 (first compound 0.01581 µM), 0.725; in the assay with AZD5582 + OSI-027 (first compound 0.05 µM), 0.957; with AZD5582 + AZD7762 (first compound 0.001581 µM) it was 0.821; in the assay with AZD5582 + AZD7762 (first compound 0.005 µM), 1.04. Besides, the relative viability with AZD5582 + AZD7762 (first compound 0.01581 µM) is 0.801; with AZD5582 + AZD7762 (first compound 0.05 µM) it was 0.929; in the assay with AZD5582 + Tozasertib (first compound 0.001581 µM), 0.363; in the assay with AZD5582 + Tozasertib (first compound 0.005 µM), 0.493; in the assay with AZD5582 + Tozasertib (first compound 0.01581 µM), 0.418; in the assay with AZD5582 + Tozasertib (first compound 0.05 µM) it was 0.4. Also, the relative viability with Temozolomide + Alpelisib (first compound 0.2 µM) came to 0.896; in the assay with Temozolomide + Alpelisib (first compound 0.6325 µM) it was 0.842; with Temozolomide + Alpelisib (first compound 2 µM), 0.942; with Temozolomide + Alpelisib (first compound 6.325 µM), 0.818; with Temozolomide + Alpelisib (first compound 20 µM) it was 0.642.
LXF-289: the relative viability with AZD5582 + OSI-027 (first compound 0.001581 µM) came out at 0.71; with AZD5582 + OSI-027 (first compound 0.005 µM), 0.907; with AZD5582 + OSI-027 (first compound 0.01581 µM) it was 0.495; with AZD5582 + OSI-027 (first compound 0.05 µM) it was 0.792; with AZD5582 + AZD7762 (first compound 0.001581 µM), 1.01; in the assay with AZD5582 + AZD7762 (first compound 0.005 µM), 1.09. Besides, the relative viability in the assay with AZD5582 + AZD7762 (first compound 0.01581 µM) worked out at 0.963; with AZD5582 + AZD7762 (first compound 0.05 µM), 1.12; in the assay with AZD5582 + Tozasertib (first compound 0.001581 µM), 0.195; with AZD5582 + Tozasertib (first compound 0.005 µM), 0.192; in the assay with AZD5582 + Tozasertib (first compound 0.01581 µM), 0.18; with AZD5582 + Tozasertib (first compound 0.05 µM), 0.191. In addition, the relative viability came to 1.06 with Temozolomide + Alpelisib (first compound 0.2 µM); 0.997 in the assay with Temozolomide + Alpelisib (first compound 0.6325 µM); 1.04 in the assay with Temozolomide + Alpelisib (first compound 2 µM); 0.992 in the assay with Temozolomide + Alpelisib (first compound 6.325 µM); 0.947 with Temozolomide + Alpelisib (first compound 20 µM).
